From patent US20210169824A1, “USE OF CANNABINOIDS IN THE TREATMENT OF SEIZURES AS ASSOCIATED WITH LENNOX-GASTAUT SYNDROME” (GW Research Limited, priority 2017, published 2021)

How the values were obtained:
[1] = patients with epilepsy, open label study, Gaston et al. 2017; cited from earlier work
[2] = system: seizures associated with Lennox-Gastaut syndrome (LGS) in treatment-resistant patients; assay: Pooled analysis of two randomised, double-blind, placebo-controlled 14-week studies of add-on cannabidiol in LGS patients deemed AED treatment failures; type: in vivo, human; settings: for Total Seizure Frequency, Treatment Difference vs. Placebo / Drop Seizure Frequency, Treatment Difference vs. Placebo: Hodges-Lehmann estimated median difference; for Drop Seizure Frequency, Median % Change During Treatment / Total Seizure Frequency, Median % Change During Treatment: from baseline
From the text: In two placebo-controlled studies of CBD as a treatment for seizures associated with LGS, cannabidiol was used as add-on treatment in patients who were defined as treatment-resistant. Patients had previously tried and stopped using a median of 6 AEDs, and were being maintained on a median of 3 AEDs.
The first study was a 1:1 randomised, double-blind, 14-week comparison of cannabidiol oral solution (CBD-OS) versus placebo. The treatment period consisted of a two-week titration period followed by a 12-week maintenance period. The treatment period was followed by a 10-day taper period and a four-week follow-up period. The study aimed to determine the efficacy, safety and tolerability of 20 mg/kg/day cannabidiol compared with placebo.
The second study was a 1:1:1 randomised, double-blind, 14-week comparison of two dose levels of cannabidiol (10 mg/kg/day and 20 mg/kg/day) versus placebo. The treatment period consisted of a two-week titration period followed by a 12-week maintenance period. The treatment period was followed by a 10-day taper period and a four-week follow-up period. The study aimed to determine the efficacy, safety and tolerability of two dose levels of CBD-OS compared with placebo. Patients in the placebo group were split into two equivalent cohorts; half receiving 10 mg/kg/day dosing volumes and half receiving 20 mg/kg/day dosing volumes.
In order to ensure that caregivers were able to interpret a seizure correctly, all caregivers underwent pre-study training, and their description and classification of a seizure was independently verified by a committee appointed by the Epilepsy Study Consortium
Despite the number of medications, the patients were already taking, the median number of drop seizures at baseline was in excess of 75 per month in both studies. These were patient populations with a high unmet medical need, who had already tried and failed multiple AEDs. In many cases, the AEDs they were being maintained on included those approved for the treatment of LGS; rufinamide, lamotrigine or topiramate.
An analysis of the change in seizure frequency for CBD vs placebo in patients who were currently taking, or had previously taken and stopped, each of rufinamide, lamotrigine or topiramate; felbamate was undertaken. Such patients can be reasonably defined as AED treatment failures.

[3] = Felbamate treatment failures, 10 mg/kg/day, N = 22
[4] = Felbamate treatment failures, 10 mg/kg/day, N = 22, P-value 0.1921 vs placebo
[5] = Felbamate treatment failures, 20 mg/kg/day, N = 38
[6] = Felbamate treatment failures, 20 mg/kg/day, N = 38, P-value 0.0068 vs placebo
[7] = Lamotrigine treatment failures, 10 mg/kg/day, N = 49
[8] = Lamotrigine treatment failures, 10 mg/kg/day, N = 49, P-value 0.0131 vs placebo
[9] = Lamotrigine treatment failures, 20 mg/kg/day, N = 114
[10] = Lamotrigine treatment failures, 20 mg/kg/day, N = 114, P-value <0.0001 vs placebo
[11] = Rufinamide treatment failures, 10 mg/kg/day, N = 47
[12] = Rufinamide treatment failures, 10 mg/kg/day, N = 47, P-value 0.1836 vs placebo
[13] = Rufinamide treatment failures, 20 mg/kg/day, N = 95
[14] = Rufinamide treatment failures, 20 mg/kg/day, N = 95, P-value 0.0011 vs placebo
[15] = Topiramate treatment failures, 10 mg/kg/day, N = 56
[16] = Topiramate treatment failures, 10 mg/kg/day, N = 56, P-value 0.0517 vs placebo
[17] = Topiramate treatment failures, 20 mg/kg/day, N = 111
[18] = Topiramate treatment failures, 20 mg/kg/day, N = 111, P-value 0.0016 vs placebo
[19] = felbamate treatment failures, 20 mg/kg dose
[20] = lamotrigine treatment failures, both doses (10 and 20 mg/kg/day)
[21] = rufinamide treatment failures, 20 mg/kg/day dose

Compound: C=C(C)[C@@H]1CCC(C)=C[C@H]1c1c(O)cc(CCCCC)cc1O [Cannabidiol]
- serum levels of some AEDs in the presence of CBD [1]: increased
- reduction in drop and total seizure frequency in patients deemed to be treatment failures ([2]; CBD combined with rufinamide, lamotrigine, topiramate or felbamate): statistically significant reduction
- Total Seizure Frequency, Treatment Difference vs. Placebo ([2]; Felbamate treatment failures, 10 mg/kg/day, P-value 0.0282): −21.77%
- Drop Seizure Frequency, Treatment Difference vs. Placebo ([2]; Felbamate treatment failures, 10 mg/kg/day, P-value 0.2984): −11.57%
- Drop Seizure Frequency, Treatment Period Median [2, 3]: 68.26 per 28 Days
- Total Seizure Frequency, Treatment Period Median [2, 3]: 103.09 per 28 Days
- Number of Responders, ≥50% Reduction in Drop Seizure Frequency from Baseline [2, 4]: 6
- Responders (%), ≥50% Reduction in Drop Seizure Frequency from Baseline [2, 4]: 27.3%
- Drop Seizure Frequency, Median % Change During Treatment [2, 3]: −30.50%
- Total Seizure Frequency, Median % Change During Treatment [2, 3]: −34.36%
- Drop Seizure Frequency, Treatment Difference vs. Placebo ([2]; Felbamate treatment failures, 20 mg/kg/day, P-value 0.0930): −17.76%
- Total Seizure Frequency, Treatment Difference vs. Placebo ([2]; Felbamate treatment failures, 20 mg/kg/day, P-value 0.1179): −14.58%
- Drop Seizure Frequency, Treatment Period Median [2, 5]: 47.32 per 28 Days
- Total Seizure Frequency, Treatment Period Median [2, 5]: 102.20 per 28 Days
- Number of Responders, ≥50% Reduction in Drop Seizure Frequency from Baseline [2, 6]: 15
- Responders (%), ≥50% Reduction in Drop Seizure Frequency from Baseline [2, 6]: 39.5%
- Drop Seizure Frequency, Median % Change During Treatment [2, 5]: −31.62%
- Total Seizure Frequency, Median % Change During Treatment [2, 5]: −27.56%
- Drop Seizure Frequency, Treatment Difference vs. Placebo ([2]; Lamotrigine treatment failures, 10 mg/kg/day, P-value 0.0040): −18.79%
- Total Seizure Frequency, Treatment Difference vs. Placebo ([2]; Lamotrigine treatment failures, 10 mg/kg/day, P-value 0.0044): −19.63%
- Drop Seizure Frequency, Treatment Period Median [2, 7]: 40.29 per 28 Days
- Total Seizure Frequency, Treatment Period Median [2, 7]: 68.41 per 28 Days
- Number of Responders, ≥50% Reduction in Drop Seizure Frequency from Baseline [2, 8]: 17
- Responders (%), ≥50% Reduction in Drop Seizure Frequency from Baseline [2, 8]: 34.7%
- Drop Seizure Frequency, Median % Change During Treatment [2, 7]: −37.16%
- Total Seizure Frequency, Median % Change During Treatment [2, 7]: −32.87%
- Total Seizure Frequency, Treatment Difference vs. Placebo ([2]; Lamotrigine treatment failures, 20 mg/kg/day, P-value 0.0008): −17.35%
- Drop Seizure Frequency, Treatment Difference vs. Placebo ([2]; Lamotrigine treatment failures, 20 mg/kg/day, P-value 0.0023): −19.24%
- Drop Seizure Frequency, Treatment Period Median [2, 9]: 36.30 per 28 Days
- Total Seizure Frequency, Treatment Period Median [2, 9]: 98.64 per 28 Days
- Number of Responders, ≥50% Reduction in Drop Seizure Frequency from Baseline [2, 10]: 47
- Responders (%), ≥50% Reduction in Drop Seizure Frequency from Baseline [2, 10]: 41.2%
- Drop Seizure Frequency, Median % Change During Treatment [2, 9]: −40.74%
- Total Seizure Frequency, Median % Change During Treatment [2, 9]: −34.44%
- Total Seizure Frequency, Treatment Difference vs. Placebo ([2]; Rufinamide treatment failures, 10 mg/kg/day, P-value 0.0062): −17.54%
- Drop Seizure Frequency, Treatment Difference vs. Placebo ([2]; Rufinamide treatment failures, 10 mg/kg/day, P-value 0.1314): −9.80%
- Drop Seizure Frequency, Treatment Period Median [2, 11]: 56.00 per 28 Days
- Total Seizure Frequency, Treatment Period Median [2, 11]: 95.51 per 28 Days
- Number of Responders, ≥50% Reduction in Drop Seizure Frequency from Baseline [2, 12]: 13
- Responders (%), ≥50% Reduction in Drop Seizure Frequency from Baseline [2, 12]: 27.7%
- Drop Seizure Frequency, Median % Change During Treatment [2, 11]: −32.95%
- Total Seizure Frequency, Median % Change During Treatment [2, 11]: −31.25%
- Total Seizure Frequency, Treatment Difference vs. Placebo ([2]; Rufinamide treatment failures, 20 mg/kg/day, P-value 0.0008): −19.43%
- Drop Seizure Frequency, Treatment Difference vs. Placebo ([2]; Rufinamide treatment failures, 20 mg/kg/day, P-value 0.0022): −19.34%
- Drop Seizure Frequency, Treatment Period Median [2, 13]: 42.30 per 28 Days
- Total Seizure Frequency, Treatment Period Median [2, 13]: 102.20 per 28 Days
- Number of Responders, ≥50% Reduction in Drop Seizure Frequency from Baseline [2, 14]: 37
- Responders (%), ≥50% Reduction in Drop Seizure Frequency from Baseline [2, 14]: 38.9%
- Drop Seizure Frequency, Median % Change During Treatment [2, 13]: −38.78%
- Total Seizure Frequency, Median % Change During Treatment [2, 13]: −34.90%
- Total Seizure Frequency, Treatment Difference vs. Placebo ([2]; Topiramate treatment failures, 10 mg/kg/day, P-value 0.0047): −17.04%
- Drop Seizure Frequency, Treatment Difference vs. Placebo ([2]; Topiramate treatment failures, 10 mg/kg/day, P-value 0.0074): −16.92%
- Drop Seizure Frequency, Treatment Period Median [2, 15]: 57.02 per 28 Days
- Total Seizure Frequency, Treatment Period Median [2, 15]: 88.31 per 28 Days
- Number of Responders, ≥50% Reduction in Drop Seizure Frequency from Baseline [2, 16]: 17
- Responders (%), ≥50% Reduction in Drop Seizure Frequency from Baseline [2, 16]: 30.4%
- Drop Seizure Frequency, Median % Change During Treatment [2, 15]: −36.08%
- Total Seizure Frequency, Median % Change During Treatment [2, 15]: −31.57%
- Total Seizure Frequency, Treatment Difference vs. Placebo ([2]; Topiramate treatment failures, 20 mg/kg/day, P-value 0.0034): −15.87%
- Drop Seizure Frequency, Treatment Difference vs. Placebo ([2]; Topiramate treatment failures, 20 mg/kg/day, P-value 0.0069): −16.83%
- Drop Seizure Frequency, Treatment Period Median [2, 17]: 44.00 per 28 Days
- Total Seizure Frequency, Treatment Period Median [2, 17]: 101.71 per 28 Days
- Number of Responders, ≥50% Reduction in Drop Seizure Frequency from Baseline [2, 18]: 40
- Responders (%), ≥50% Reduction in Drop Seizure Frequency from Baseline [2, 18]: 36.0%
- Drop Seizure Frequency, Median % Change During Treatment [2, 17]: −34.13%
- Total Seizure Frequency, Median % Change During Treatment [2, 17]: −33.76%
- proportion of patients with a 50% reduction in drop seizure frequency compared with placebo [2, 19]: statistically significantly greater proportion
- reduction in drop seizure frequency compared with placebo [2, 19]: marginally statistically significantly greater reduction
- proportion of patients with a 50% reduction in drop seizure frequency compared with placebo [2, 20]: significantly greater proportion
- reduction in both drop and total seizure frequency compared with placebo [2, 20]: significantly greater reduction
- benefit in patients taking without seizure control, or having stopped, the AEDs authorised for LGS in the EU ([2]; pooled data from two studies, effect most significant at 20 mg/kg/day): significant benefit
- proportion of patients with a 50% reduction in drop seizure frequency compared with placebo [2, 21]: significantly greater proportion
- reduction in drop and total seizure frequency compared with placebo [2, 21]: significantly greater reduction
- reduction in both drop and total seizure frequency compared with placebo ([2]; topiramate treatment failures, both doses (10 and 20 mg/kg/day)): significantly greater reduction
- proportion of patients with a 50% reduction in drop seizure frequency compared with placebo ([2]; topiramate treatment failures, both doses, statistical significance for 20 mg/kg/day, only marginal for 10 mg/kg/day): greater proportion
